Results as given in patent US7074789B2, “Kinase inhibitors” (Amgen Inc., priority 1999, dated 2006).

Legend:
Format in all cases: biochemical
[1] = molecular target: T1, AKT (Homo sapiens, UniProt Q9Y243); assay: Kinase inhibition assay (33P transfer), AKT; conditions: Table 2, kinase inhibition class; read-out: AKT3-1
T1 construct: Kinases are expressed as either kinase domains or full length constructs; made in house
Outline: (§1)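 GST/His-tagged kinase (domain or full length; E. coli or baculovirus) + [33P]ATP on plates coated with poly(Glu,Tyr) 4:1 or poly(Arg,Ser) 3:1; incubate, wash 0.5% H3PO4, add scintillant, count.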

[2] = molecular target: T2, Lyn (Homo sapiens, UniProt P07948); assay: Kinase inhibition assay (33P transfer), Lyn; conditions: Table 6, Lyn-1 kinase inhibition class
T2 construct: Kinases are expressed as either kinase domains or full length constructs; made in house
Outline: (§2)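 Kinase domains or full-length enzymes, GST- or polyHis-tagged, were expressed in E. coli or baculovirus High Five cells and affinity-purified. Transfer of 33PO4 from ATP onto plate-bound poly(Glu,Tyr) 4:1 or poly(Arg,Ser) 3:1 was counted by liquid scintillation after a 0.5% phosphoric acid wash. IC50 = concentration halving incorporation.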

[3] = molecular target: T3, Ret-1 (Homo sapiens, UniProt P07949); assay: Kinase inhibition assay (33P transfer), Ret; conditions: Table 6, Ret-1 kinase inhibition class
T3 construct: Kinases are expressed as either kinase domains or full length constructs; made in house

[4] = molecular target: T4, Fyn (Homo sapiens, UniProt P06241); assay: Kinase inhibition assay (33P transfer), Fyn; conditions: read-out: Fyn-1
T4 construct: Kinases are expressed as either kinase domains or full length constructs; made in house
Outline: as §2

[5] = molecular target: T5, FGFR1 (Homo sapiens, UniProt P11362); assay: Kinase inhibition assay (33P transfer), FGFR1; conditions: read-out: FGFR1-1
T5 construct: Kinases are expressed as either kinase domains or full length constructs; made in house

[6] = molecular target: T6, ErbB4 (Homo sapiens, UniProt Q15303); assay: Kinase inhibition assay (33P transfer), ErbB4; conditions: read-out: ErbB4-1
T6 construct: Kinases are expressed as either kinase domains or full length constructs; made in house

[7] = molecular target: T7, Flt-1 (Homo sapiens, UniProt P17948); assay: Kinase inhibition assay (33P transfer), Flt-1
T7 construct: Kinases are expressed as either kinase domains or full length constructs; made in house
Outline: as §2

[8] = molecular target: T8, Lck (Homo sapiens, UniProt P06239); assay: Kinase inhibition assay (33P transfer), Lck; conditions: read-out: Lck-1
T8 construct: Kinases are expressed as either kinase domains or full length constructs; made in house
Outline: as §1

[9] = molecular target: T9, EGFR (Homo sapiens, UniProt P00533); assay: Kinase inhibition assay (33P transfer), EGFR; conditions: Table 2, kinase inhibition class; read-out: EGFR-1
T9 construct: Kinases are expressed as either kinase domains or full length constructs; made in house
Outline: as §2

[10] = molecular target: T10, Kdr (Homo sapiens, UniProt P35968); assay: Kinase inhibition assay (33P transfer), Kdr; conditions: read-out: KDR-1
T10 construct: Kinases are expressed as either kinase domains or full length constructs; made in house
Outline: as §1

[11] = molecular target: T11, Hck-1 (Homo sapiens, UniProt P08631); assay: Kinase inhibition assay (33P transfer), Hck; conditions: Table 6, Hck-1 kinase inhibition class
T11 construct: Kinases are expressed as either kinase domains or full length constructs; made in house

[12] = molecular target: T12, Zap-70 (Homo sapiens, UniProt P43403); assay: Kinase inhibition assay (33P transfer), Zap-70; conditions: read-out: Zap-1
T12 construct: Kinases are expressed as either kinase domains or full length constructs; made in house
T12 sequence (P43403 1-619): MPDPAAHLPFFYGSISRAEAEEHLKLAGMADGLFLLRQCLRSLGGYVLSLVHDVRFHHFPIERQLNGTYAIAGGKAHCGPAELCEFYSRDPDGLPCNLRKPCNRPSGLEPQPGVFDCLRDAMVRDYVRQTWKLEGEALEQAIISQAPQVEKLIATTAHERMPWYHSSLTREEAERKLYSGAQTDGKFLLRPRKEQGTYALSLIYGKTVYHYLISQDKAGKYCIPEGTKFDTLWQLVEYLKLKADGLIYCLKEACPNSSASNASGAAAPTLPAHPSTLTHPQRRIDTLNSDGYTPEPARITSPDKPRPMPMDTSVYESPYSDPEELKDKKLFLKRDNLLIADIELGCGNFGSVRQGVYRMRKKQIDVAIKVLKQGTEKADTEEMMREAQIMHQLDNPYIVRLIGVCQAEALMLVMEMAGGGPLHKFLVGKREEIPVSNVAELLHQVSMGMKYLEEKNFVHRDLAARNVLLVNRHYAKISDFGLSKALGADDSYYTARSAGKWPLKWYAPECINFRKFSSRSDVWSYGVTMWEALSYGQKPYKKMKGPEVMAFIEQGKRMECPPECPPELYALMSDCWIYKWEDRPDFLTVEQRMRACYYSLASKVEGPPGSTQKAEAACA
Outline: as §1

[13] = molecular target: T13, Src (Homo sapiens, UniProt P12931); assay: Kinase inhibition assay (33P transfer), Src; conditions: Table 6, Src-1 kinase inhibition class
T13 construct: Kinases are expressed as either kinase domains or full length constructs; made in house
Outline: as §2

[14] = molecular target: T14, PDGFRB (Homo sapiens, UniProt P09619); assay: Kinase inhibition assay (33P transfer), PDGFRB; conditions: read-out: PDGFRB-1
T14 construct: Kinases are expressed as either kinase domains or full length constructs; made in house

[15] = molecular target: T15, IGFR-1 (Homo sapiens, UniProt P08069); assay: Kinase inhibition assay, IGFR-1 (Table 2); conditions: Table 2, kinase inhibition class
T15 construct: Kinases are expressed as either kinase domains or full length constructs; made in house

[16] = molecular target: T16, ErbB2 (Homo sapiens, UniProt P04626); assay: Kinase inhibition assay (33P transfer), ErbB2; conditions: read-out: ErbB2-2
T16 construct: Kinases are expressed as either kinase domains or full length constructs; made in house
Outline: as §2

[17] = molecular target: T17, c-Met (Homo sapiens, UniProt P08581); assay: Kinase inhibition assay (33P transfer), c-Met; conditions: Table 2, kinase inhibition class; read-out: Met-1
T17 construct: Kinases are expressed as either kinase domains or full length constructs; made in house
Outline: as §2

[18] = molecular target: T18, Itk (Homo sapiens, UniProt Q08881); assay: Kinase inhibition assay (33P transfer), Itk; conditions: read-out: Itk-1
T18 construct: Kinases are expressed as either kinase domains or full length constructs; made in house
T18 sequence (Q08881 1-620): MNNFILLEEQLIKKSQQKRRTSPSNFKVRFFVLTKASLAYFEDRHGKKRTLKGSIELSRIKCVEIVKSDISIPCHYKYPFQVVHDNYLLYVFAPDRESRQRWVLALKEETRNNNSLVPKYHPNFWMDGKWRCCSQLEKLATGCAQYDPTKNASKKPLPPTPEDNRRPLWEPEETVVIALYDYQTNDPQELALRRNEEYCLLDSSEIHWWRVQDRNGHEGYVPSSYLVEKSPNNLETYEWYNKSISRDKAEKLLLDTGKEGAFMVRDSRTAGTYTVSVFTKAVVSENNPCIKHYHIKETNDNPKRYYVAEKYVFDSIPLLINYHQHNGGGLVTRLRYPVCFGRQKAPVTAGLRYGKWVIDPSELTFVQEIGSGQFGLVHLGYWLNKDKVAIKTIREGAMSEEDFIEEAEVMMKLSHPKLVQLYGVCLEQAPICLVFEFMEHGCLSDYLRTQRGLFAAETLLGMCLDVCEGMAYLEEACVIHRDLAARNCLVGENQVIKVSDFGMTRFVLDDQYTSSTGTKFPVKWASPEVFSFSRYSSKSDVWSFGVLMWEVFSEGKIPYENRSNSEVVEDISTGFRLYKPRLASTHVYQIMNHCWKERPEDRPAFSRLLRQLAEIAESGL
Outline: as §2

[19] = molecular target: T19, Tek (Homo sapiens, UniProt Q02763); assay: Kinase inhibition assay (33P transfer), Tek; conditions: read-out: Tek-1
T19 construct: Kinases are expressed as either kinase domains or full length constructs; made in house
Outline: as §2

T14 sequence (P09619 33-1106, species assumed): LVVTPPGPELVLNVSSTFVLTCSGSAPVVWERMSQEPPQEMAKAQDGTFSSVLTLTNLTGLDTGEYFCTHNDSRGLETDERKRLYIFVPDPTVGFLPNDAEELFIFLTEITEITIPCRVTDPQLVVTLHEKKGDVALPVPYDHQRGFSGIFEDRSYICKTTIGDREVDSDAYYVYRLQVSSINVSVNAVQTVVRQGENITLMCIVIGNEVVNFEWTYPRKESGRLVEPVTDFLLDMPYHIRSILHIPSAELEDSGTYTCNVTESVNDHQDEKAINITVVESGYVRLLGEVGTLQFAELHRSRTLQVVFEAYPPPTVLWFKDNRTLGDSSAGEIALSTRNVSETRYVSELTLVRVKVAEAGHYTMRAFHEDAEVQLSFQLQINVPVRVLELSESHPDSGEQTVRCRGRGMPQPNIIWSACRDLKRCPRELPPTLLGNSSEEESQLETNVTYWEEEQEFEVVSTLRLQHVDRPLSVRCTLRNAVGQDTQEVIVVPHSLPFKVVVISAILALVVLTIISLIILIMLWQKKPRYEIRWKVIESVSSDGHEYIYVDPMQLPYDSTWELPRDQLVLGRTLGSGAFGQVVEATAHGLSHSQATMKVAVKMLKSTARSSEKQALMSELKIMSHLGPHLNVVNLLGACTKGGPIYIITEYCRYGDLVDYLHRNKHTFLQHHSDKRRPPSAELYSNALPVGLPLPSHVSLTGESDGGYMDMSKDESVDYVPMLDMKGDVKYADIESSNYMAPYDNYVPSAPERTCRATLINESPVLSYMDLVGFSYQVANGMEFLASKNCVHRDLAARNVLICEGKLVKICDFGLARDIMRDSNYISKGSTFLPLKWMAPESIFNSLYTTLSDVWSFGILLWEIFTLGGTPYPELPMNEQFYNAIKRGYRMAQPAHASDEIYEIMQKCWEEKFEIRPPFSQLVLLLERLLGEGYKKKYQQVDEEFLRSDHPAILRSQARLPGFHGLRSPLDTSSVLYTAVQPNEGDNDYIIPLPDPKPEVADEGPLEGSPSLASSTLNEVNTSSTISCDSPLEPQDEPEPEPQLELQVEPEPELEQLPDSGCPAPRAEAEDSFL
T2 sequence (P07948 whole entry, species assumed, the tested form may be a part): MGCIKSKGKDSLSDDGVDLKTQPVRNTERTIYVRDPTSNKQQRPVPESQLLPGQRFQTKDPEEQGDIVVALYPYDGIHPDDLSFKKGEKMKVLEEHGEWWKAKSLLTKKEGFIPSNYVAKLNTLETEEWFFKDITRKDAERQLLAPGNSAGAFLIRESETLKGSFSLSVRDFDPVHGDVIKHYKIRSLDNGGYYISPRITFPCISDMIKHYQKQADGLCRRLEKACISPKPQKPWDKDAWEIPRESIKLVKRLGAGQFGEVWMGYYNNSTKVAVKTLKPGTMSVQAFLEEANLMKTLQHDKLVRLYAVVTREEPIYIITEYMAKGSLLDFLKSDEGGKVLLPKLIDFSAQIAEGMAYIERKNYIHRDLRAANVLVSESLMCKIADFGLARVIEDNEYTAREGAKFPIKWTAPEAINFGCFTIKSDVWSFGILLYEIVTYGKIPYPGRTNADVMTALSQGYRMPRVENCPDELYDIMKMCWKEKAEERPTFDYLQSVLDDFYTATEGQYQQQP
T5 sequence (P11362 22-822, species assumed): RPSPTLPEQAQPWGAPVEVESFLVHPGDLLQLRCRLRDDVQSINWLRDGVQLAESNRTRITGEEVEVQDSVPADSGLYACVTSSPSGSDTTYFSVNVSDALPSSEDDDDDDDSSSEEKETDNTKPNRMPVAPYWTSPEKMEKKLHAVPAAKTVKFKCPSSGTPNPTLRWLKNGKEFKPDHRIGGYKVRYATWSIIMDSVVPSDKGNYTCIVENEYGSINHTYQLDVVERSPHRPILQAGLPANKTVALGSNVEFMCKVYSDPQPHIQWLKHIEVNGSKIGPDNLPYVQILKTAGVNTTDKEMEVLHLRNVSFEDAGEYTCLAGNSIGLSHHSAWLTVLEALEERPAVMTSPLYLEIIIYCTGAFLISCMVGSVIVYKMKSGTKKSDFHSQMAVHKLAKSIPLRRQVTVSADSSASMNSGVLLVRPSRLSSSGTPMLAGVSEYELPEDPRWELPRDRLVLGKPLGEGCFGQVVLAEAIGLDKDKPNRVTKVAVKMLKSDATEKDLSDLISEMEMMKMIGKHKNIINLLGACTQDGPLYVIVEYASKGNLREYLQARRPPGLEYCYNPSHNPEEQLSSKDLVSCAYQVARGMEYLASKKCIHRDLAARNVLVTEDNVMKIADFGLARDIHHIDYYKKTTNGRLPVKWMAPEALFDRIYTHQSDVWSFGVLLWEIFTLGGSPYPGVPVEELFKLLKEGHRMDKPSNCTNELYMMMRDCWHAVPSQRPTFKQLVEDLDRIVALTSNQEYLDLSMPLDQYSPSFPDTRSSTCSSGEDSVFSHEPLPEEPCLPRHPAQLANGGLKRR
T8 sequence (P06239 whole entry, species assumed, the tested form may be a part): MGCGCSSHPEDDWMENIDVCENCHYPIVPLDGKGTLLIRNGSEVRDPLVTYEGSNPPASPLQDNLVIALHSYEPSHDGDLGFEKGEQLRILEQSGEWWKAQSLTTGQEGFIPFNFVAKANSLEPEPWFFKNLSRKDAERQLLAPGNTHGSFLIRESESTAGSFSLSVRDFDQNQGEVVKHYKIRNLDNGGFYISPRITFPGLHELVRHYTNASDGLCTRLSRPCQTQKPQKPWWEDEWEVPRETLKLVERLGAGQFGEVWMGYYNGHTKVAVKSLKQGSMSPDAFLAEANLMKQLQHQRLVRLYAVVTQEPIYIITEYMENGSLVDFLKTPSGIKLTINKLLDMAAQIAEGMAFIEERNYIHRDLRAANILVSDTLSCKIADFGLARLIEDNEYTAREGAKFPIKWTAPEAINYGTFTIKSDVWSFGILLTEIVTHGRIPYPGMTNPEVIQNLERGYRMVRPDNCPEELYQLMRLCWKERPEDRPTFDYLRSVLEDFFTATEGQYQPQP
T11 sequence (P08631 whole entry, the tested form may be a part): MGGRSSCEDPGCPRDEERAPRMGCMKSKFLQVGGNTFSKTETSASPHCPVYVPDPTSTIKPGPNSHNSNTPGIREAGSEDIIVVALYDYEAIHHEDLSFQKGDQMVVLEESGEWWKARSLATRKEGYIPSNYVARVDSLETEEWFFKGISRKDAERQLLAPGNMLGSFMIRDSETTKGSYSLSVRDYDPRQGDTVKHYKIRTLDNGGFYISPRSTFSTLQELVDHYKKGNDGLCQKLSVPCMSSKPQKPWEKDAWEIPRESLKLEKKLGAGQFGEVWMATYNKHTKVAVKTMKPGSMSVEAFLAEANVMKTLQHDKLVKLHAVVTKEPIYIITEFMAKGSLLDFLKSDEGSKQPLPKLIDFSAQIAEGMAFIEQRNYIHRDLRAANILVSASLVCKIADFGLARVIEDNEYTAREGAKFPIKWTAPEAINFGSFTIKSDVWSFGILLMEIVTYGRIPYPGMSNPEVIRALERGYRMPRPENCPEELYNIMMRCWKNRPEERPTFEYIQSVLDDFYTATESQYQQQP
T17 sequence (P08581 25-1390): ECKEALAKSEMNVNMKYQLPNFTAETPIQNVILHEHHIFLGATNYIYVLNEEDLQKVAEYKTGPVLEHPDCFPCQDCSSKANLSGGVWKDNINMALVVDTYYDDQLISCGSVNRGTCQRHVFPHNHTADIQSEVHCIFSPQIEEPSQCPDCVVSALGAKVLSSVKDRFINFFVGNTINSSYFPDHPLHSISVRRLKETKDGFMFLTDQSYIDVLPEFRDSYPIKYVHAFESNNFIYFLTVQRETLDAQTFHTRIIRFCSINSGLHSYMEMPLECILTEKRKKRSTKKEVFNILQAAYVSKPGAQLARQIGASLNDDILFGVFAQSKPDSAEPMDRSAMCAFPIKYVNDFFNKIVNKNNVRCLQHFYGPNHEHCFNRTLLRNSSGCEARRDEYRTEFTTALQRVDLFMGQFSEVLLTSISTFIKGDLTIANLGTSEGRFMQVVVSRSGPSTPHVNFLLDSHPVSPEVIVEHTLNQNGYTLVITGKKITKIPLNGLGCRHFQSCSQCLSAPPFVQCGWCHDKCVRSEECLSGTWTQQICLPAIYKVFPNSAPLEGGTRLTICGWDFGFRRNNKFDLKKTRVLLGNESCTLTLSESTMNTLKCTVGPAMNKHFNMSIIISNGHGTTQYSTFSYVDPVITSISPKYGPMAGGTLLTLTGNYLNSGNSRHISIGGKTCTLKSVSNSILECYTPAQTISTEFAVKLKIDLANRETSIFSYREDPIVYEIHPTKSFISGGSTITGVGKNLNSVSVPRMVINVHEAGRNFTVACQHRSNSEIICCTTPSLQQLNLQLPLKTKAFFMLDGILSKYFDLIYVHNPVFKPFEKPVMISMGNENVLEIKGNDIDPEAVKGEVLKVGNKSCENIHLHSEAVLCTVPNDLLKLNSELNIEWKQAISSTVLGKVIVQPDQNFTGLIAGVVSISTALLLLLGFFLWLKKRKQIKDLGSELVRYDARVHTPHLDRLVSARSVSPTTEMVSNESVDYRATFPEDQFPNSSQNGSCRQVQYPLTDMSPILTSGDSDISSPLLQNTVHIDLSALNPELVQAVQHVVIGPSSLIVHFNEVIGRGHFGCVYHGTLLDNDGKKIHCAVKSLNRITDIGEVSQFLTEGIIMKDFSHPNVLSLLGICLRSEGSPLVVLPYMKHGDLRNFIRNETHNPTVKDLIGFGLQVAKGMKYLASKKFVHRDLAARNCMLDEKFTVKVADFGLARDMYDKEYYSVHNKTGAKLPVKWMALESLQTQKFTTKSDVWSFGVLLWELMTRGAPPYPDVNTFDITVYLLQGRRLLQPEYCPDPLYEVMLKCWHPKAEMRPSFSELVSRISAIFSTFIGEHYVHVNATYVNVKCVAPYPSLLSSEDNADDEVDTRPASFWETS

SMILES: COc1cc(Nc2ncnc(-n3c(N[C@@H](CO)c4ccccc4)nc4ccccc43)n2)cc(OC)c1OC [Compound 1036]
- IC50 [1]: > 8.76 µM
- IC50 [2]: < 0.779 µM
- IC50 [3]: < 0.779 µM
- IC50 [4]: 0.779 to 4.67 µM
- IC50 [5]: < 0.779 µM
- IC50 [6]: 4.67 to 6.82 µM
- IC50 [7]: < 0.779 µM
- IC50 [8]: < 0.779 µM
- IC50 [9]: 0.779 to 4.67 µM
- IC50 [10]: < 0.779 µM
- IC50 [11]: > 8.76 µM
- IC50 [12]: > 8.76 µM
- IC50 [13]: 0.779 to 4.67 µM
- IC50 [14]: < 0.779 µM
- IC50 [15]: 6.82 to 8.76 µM
- IC50 [16]: 0.779 to 4.67 µM
- IC50 [17]: > 8.76 µM
- IC50 [18]: > 8.76 µM
- IC50 [19]: 4.67 to 6.82 µM

SMILES: COc1cc(Nc2ncnc(-n3c(NCc4cccc(Cl)c4)nc4ccccc43)n2)cc(OC)c1OC [Compound 949]
- IC50 [1]: > 8.69 µM
- IC50 [2]: 0.772 to 4.63 µM
- IC50 [3]: < 0.772 µM
- IC50 [4]: > 8.69 µM
- IC50 [5]: < 0.772 µM
- IC50 [6]: 0.772 to 4.63 µM
- IC50 [7]: < 0.772 µM
- IC50 [8]: < 0.772 µM
- IC50 [9]: > 8.69 µM
- IC50 [10]: < 0.772 µM
- IC50 [11]: > 8.69 µM
- IC50 [12]: > 8.69 µM
- IC50 [13]: > 8.69 µM
- IC50 [14]: < 0.772 µM
- IC50 [15]: 6.76 to 8.69 µM
- IC50 [16]: > 8.69 µM
- IC50 [17]: 6.76 to 8.69 µM
- IC50 [18]: > 8.69 µM
- IC50 [19]: > 8.69 µM

SMILES: CCc1cccc(Nc2ncnc(-n3c(N)nc4ccccc43)n2)c1 [Compound 655]
- IC50 [1]: > 13.6 µM
- IC50 [2]: 7.24 to 10.6 µM
- IC50 [3]: < 1.21 µM
- IC50 [4]: > 13.6 µM
- IC50 [5]: 1.21 to 7.24 µM
- IC50 [6]: 7.24 to 10.6 µM
- IC50 [7]: < 1.21 µM
- IC50 [8]: 1.21 to 7.24 µM
- IC50 [9]: 1.21 to 7.24 µM
- IC50 [10]: < 1.21 µM
- IC50 [11]: > 13.6 µM
- IC50 [12]: > 13.6 µM
- IC50 [13]: 7.24 to 10.6 µM
- IC50 [14]: 1.21 to 7.24 µM
- IC50 [15]: < 1.21 µM
- IC50 [16]: 1.21 to 7.24 µM
- IC50 [17]: 1.21 to 7.24 µM
- IC50 [18]: 1.21 to 7.24 µM
- IC50 [19]: 7.24 to 10.6 µM

SMILES: COc1cc(Nc2ncnc(Nc3cccc4ccccc34)n2)cc(OCCN2CCOCC2)c1OC [Compound 953]
- IC50 [1]: > 8.95 µM
- IC50 [2]: < 0.796 µM
- IC50 [3]: 0.796 to 4.78 µM
- IC50 [4]: < 0.796 µM
- IC50 [5]: 0.796 to 4.78 µM
- IC50 [6]: 0.796 to 4.78 µM
- IC50 [7]: 0.796 to 4.78 µM
- IC50 [8]: < 0.796 µM
- IC50 [9]: < 0.796 µM
- IC50 [10]: 0.796 to 4.78 µM
- IC50 [11]: 0.796 to 4.78 µM
- IC50 [12]: > 8.95 µM
- IC50 [13]: < 0.796 µM
- IC50 [14]: < 0.796 µM
- IC50 [15]: 4.78 to 6.96 µM
- IC50 [16]: 0.796 to 4.78 µM
- IC50 [17]: > 8.95 µM
- IC50 [18]: 6.96 to 8.95 µM
- IC50 [19]: 0.796 to 4.78 µM

SMILES: COc1cc(Nc2ncnc(-n3c(NCc4ccc([N+](=O)[O-])cc4)nc4ccccc43)n2)cc(OC)c1OC [Compound 952]
- IC50 [1]: > 8.51 µM
- IC50 [2]: < 0.757 µM
- IC50 [3]: < 0.757 µM
- IC50 [4]: 4.54 to 6.62 µM
- IC50 [5]: 0.757 to 4.54 µM
- IC50 [6]: > 8.51 µM
- IC50 [7]: 0.757 to 4.54 µM
- IC50 [8]: 4.54 to 6.62 µM
- IC50 [9]: > 8.51 µM
- IC50 [10]: < 0.757 µM
- IC50 [11]: 6.62 to 8.51 µM
- IC50 [12]: > 8.51 µM
- IC50 [13]: 6.62 to 8.51 µM
- IC50 [14]: 0.757 to 4.54 µM
- IC50 [15]: 0.757 to 4.54 µM
- IC50 [16]: 4.54 to 6.62 µM
- IC50 [17]: > 8.51 µM
- IC50 [18]: 6.62 to 8.51 µM
- IC50 [19]: 4.54 to 6.62 µM
